# Results as given in ChEMBL document CHEMBL5465560, “Selectivity Literature for EUbOPEN Chemogenomic Library” (2024).
# Tests used:
# [1] = molecular target: Vascular endothelial growth factor receptor 3 (Homo sapiens, UniProt P35916); experiment: Selectivity interaction (KinomeScan (DiscoverX)) EUB0000666a FLT4; settings: at 10 µM
# [2] = molecular target: Serine/threonine-protein kinase SIK2 (Homo sapiens) (UniProt Q9H0K1); experiment: Selectivity interaction (KinomeScan (DiscoverX)) EUB0000666a SIK2; settings: at 10 µM
# Histamine H1 receptor = Histamine H1 receptor (Homo sapiens, UniProt P35367); experiment: Selectivity interaction (Eurofins CEREP Diversity Profile (receptors and ion channels)) EUB0000279b HRH1; settings: at 10 µM
# [3] = molecular target: Death-associated protein kinase 3 (Homo sapiens) (UniProt O43293); experiment: Selectivity interaction (KinomeScan (DiscoverX)) EUB0001079a DAPK3; settings: at 1 µM
# [4] = molecular target: RAF proto-oncogene serine/threonine-protein kinase (Homo sapiens) (UniProt P04049); experiment: Selectivity interaction (Kinase panel (Invitrogen)) EUB0000639a RAF1; settings: at 200 nM
# [5] = molecular target: Serine/threonine-protein kinase PRP4 homolog (Homo sapiens) (UniProt Q13523); experiment: Selectivity interaction (KinomeScan (DiscoverX)) EUB0000595a PRPF4B; settings: at 10 µM
# Serine/threonine-protein kinase PRP4 homolog (Homo sapiens), sequence (Q13523 whole entry): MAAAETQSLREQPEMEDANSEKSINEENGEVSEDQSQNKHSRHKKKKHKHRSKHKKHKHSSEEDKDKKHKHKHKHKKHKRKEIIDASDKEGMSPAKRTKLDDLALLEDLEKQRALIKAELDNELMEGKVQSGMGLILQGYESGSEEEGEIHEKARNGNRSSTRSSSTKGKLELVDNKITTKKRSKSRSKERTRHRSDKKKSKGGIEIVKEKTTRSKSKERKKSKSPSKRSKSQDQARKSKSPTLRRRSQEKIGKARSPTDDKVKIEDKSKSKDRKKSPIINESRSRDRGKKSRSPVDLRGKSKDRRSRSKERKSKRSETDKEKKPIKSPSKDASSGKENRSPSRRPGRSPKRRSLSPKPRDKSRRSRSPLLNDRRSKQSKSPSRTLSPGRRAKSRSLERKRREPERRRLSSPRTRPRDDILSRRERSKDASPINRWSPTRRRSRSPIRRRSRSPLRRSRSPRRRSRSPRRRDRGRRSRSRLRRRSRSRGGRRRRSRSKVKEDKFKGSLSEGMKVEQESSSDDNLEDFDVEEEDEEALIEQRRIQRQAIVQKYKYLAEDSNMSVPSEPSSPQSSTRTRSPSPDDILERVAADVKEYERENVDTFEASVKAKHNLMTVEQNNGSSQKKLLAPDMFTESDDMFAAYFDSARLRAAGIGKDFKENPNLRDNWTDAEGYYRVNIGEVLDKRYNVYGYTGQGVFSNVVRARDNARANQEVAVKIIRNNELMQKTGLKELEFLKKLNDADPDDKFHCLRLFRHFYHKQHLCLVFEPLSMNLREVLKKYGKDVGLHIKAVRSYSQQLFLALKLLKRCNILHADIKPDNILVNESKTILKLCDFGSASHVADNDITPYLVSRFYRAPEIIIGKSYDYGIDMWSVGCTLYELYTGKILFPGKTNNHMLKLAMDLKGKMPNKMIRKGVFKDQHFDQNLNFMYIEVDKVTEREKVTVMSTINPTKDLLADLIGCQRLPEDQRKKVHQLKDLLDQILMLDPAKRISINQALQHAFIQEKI
# [6] = molecular target: T1, Hormonally up-regulated neu tumor-associated kinase (Homo sapiens) (UniProt P57058); experiment: Selectivity interaction (KinomeScan (DiscoverX)) EUB0001619a HUNK; settings: at 1 µM
# T1 sequence (whole entry): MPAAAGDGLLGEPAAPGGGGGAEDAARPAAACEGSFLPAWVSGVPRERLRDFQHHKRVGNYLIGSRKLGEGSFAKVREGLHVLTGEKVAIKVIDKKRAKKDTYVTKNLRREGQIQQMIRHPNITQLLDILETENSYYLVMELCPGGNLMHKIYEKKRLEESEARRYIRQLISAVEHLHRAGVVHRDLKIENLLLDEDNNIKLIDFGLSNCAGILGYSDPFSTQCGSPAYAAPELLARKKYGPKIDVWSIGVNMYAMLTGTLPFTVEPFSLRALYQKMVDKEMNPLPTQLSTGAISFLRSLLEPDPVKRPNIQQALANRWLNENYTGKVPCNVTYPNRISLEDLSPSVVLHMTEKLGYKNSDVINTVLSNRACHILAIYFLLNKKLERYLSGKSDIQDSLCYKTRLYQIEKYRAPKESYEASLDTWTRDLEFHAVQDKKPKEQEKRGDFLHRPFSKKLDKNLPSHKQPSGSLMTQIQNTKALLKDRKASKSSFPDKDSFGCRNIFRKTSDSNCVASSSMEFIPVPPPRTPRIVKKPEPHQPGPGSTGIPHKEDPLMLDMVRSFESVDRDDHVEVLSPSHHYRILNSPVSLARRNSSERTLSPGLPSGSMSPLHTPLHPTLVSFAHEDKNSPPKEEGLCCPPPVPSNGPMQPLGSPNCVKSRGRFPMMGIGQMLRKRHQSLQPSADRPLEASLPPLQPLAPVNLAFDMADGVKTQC
# [7] = molecular target: Phosphatidylinositol 4-kinase beta (Homo sapiens, UniProt Q9UBF8); experiment: Selectivity interaction (ActivX KiNativ screen (ex vivo kinase selectivity in human PBMCs)) EUB0001619a PI4KB; format: cell-based; settings: PBMC, at 1 µM
# Phosphatidylinositol 4-kinase beta, sequence (Q9UBF8 2-816 limits assumed): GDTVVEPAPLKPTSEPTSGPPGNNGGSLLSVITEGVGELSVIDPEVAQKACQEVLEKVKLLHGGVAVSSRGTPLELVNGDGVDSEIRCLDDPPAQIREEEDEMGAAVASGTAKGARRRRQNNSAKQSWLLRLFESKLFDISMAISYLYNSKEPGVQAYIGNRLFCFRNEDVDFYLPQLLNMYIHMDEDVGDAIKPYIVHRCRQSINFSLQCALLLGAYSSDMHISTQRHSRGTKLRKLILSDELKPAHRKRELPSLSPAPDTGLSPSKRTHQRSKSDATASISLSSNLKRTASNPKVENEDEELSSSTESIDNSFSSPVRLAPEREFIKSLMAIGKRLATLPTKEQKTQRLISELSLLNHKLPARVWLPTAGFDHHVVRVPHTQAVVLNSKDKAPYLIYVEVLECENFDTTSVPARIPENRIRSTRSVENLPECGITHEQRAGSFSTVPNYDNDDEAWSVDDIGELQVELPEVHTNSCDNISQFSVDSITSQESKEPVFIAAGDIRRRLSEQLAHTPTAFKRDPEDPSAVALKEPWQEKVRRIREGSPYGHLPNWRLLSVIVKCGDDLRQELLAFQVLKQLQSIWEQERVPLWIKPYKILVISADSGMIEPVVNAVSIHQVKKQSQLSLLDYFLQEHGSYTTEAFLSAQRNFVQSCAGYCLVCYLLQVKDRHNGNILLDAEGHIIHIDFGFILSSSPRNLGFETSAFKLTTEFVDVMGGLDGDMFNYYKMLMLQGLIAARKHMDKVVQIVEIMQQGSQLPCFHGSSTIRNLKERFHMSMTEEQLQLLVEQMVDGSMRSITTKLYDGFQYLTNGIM
# [8] = molecular target: T2, Serine/threonine-protein kinase TBK1 (Homo sapiens) (UniProt Q9UHD2); experiment: Selectivity interaction (ActivX KiNativ screen (ex vivo kinase selectivity in human PBMCs)) EUB0001619a TBK1; format: cell-based; settings: PBMC, at 1 µM
# T2 sequence (whole entry): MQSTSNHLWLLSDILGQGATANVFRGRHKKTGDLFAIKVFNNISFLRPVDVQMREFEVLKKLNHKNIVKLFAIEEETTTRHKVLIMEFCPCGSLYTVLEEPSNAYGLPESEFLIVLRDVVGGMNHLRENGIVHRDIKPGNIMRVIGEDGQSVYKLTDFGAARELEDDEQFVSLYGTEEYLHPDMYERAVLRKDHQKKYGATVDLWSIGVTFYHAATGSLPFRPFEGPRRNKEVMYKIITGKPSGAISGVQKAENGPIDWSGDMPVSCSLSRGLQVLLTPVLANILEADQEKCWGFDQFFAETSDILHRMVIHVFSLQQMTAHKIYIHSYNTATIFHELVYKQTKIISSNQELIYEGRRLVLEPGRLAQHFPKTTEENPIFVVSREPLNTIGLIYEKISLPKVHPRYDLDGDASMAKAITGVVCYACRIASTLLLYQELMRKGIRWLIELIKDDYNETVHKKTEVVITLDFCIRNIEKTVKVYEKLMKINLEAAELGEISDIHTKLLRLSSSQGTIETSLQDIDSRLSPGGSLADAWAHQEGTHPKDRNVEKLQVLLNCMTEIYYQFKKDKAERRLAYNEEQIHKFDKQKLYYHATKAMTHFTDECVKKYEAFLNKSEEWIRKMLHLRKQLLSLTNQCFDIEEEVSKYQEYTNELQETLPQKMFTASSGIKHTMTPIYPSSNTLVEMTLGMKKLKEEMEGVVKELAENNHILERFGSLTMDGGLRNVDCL
# [9] = molecular target: Serine/threonine-protein kinase WNK1 (Homo sapiens) (UniProt Q9H4A3); experiment: Selectivity interaction (KinomeScan (DiscoverX)) EUB0001619a WNK1; settings: at 1 µM
# Serine/threonine-protein kinase WNK1 (Homo sapiens), sequence (Q9H4A3 whole entry, looked up): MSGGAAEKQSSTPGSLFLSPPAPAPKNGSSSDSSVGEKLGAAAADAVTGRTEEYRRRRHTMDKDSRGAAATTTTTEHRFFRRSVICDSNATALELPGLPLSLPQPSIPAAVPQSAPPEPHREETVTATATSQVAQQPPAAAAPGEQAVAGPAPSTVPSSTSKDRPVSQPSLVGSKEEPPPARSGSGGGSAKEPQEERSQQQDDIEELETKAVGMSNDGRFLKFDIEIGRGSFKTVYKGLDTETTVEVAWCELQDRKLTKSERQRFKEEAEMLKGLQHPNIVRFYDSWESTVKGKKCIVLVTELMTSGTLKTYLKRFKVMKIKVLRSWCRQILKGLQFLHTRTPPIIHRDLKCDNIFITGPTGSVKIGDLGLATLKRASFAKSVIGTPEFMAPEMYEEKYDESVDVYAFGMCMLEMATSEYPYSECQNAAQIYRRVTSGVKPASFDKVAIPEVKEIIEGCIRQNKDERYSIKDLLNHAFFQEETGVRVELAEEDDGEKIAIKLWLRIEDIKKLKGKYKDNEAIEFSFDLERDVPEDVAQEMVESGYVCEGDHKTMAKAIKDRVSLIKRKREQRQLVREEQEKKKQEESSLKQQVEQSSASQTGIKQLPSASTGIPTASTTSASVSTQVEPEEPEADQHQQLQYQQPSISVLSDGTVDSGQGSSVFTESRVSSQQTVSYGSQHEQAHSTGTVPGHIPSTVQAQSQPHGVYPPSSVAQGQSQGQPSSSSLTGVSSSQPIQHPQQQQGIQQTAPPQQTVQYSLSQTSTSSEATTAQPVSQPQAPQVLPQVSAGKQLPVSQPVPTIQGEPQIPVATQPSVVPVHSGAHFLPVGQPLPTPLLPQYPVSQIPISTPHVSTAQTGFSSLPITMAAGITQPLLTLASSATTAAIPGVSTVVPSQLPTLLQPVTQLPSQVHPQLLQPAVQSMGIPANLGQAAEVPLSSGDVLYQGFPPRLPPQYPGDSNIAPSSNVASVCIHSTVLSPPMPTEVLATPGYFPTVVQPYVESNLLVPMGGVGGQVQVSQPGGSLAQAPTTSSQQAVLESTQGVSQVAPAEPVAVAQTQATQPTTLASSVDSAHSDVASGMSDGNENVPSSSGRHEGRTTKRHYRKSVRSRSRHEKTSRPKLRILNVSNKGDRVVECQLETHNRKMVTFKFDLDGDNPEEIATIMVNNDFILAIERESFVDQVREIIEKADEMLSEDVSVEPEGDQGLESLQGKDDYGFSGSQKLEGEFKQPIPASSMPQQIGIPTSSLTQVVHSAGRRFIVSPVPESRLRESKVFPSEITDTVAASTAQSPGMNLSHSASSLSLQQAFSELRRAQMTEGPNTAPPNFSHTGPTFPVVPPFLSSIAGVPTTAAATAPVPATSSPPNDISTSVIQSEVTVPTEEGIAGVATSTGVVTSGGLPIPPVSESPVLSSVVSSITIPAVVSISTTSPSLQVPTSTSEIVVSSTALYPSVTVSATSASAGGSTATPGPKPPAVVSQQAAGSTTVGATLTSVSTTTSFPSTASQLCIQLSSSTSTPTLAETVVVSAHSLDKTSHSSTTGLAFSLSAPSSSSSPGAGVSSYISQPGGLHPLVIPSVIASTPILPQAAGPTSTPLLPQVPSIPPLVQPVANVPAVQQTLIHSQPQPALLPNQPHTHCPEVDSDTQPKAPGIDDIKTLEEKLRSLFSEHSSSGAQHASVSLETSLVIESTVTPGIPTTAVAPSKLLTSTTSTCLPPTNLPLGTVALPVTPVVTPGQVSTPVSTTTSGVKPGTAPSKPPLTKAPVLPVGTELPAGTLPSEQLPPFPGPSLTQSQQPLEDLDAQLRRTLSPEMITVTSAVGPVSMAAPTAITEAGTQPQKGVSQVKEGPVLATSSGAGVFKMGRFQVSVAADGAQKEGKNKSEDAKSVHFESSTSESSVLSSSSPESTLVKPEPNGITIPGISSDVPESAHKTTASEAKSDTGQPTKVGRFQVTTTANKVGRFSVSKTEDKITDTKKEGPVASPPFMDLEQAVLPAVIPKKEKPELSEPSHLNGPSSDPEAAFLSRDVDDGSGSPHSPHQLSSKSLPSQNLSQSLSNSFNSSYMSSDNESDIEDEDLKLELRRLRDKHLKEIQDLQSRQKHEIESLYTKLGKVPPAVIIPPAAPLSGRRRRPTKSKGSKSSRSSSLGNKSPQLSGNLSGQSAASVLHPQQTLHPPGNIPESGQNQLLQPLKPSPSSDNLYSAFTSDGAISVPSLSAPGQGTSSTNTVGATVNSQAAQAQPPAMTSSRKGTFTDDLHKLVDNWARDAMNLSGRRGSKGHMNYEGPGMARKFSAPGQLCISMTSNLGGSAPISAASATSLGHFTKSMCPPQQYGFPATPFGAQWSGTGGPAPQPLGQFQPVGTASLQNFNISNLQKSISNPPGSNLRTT
# [10] = molecular target: SRSF protein kinase 2 (Homo sapiens) (UniProt P78362); experiment: Selectivity interaction (KinomeScan (DiscoverX)) EUB0000607a SRPK2; settings: at 10 µM
# [11] = molecular target: T3, NUAK family SNF1-like kinase 2 (Homo sapiens) (UniProt Q9H093); experiment: Selectivity interaction (LanthaScreen Eu Kinase Binding Assay) EUB0001632a NUAK2; settings: at 10 µM
# T3 sequence (whole entry): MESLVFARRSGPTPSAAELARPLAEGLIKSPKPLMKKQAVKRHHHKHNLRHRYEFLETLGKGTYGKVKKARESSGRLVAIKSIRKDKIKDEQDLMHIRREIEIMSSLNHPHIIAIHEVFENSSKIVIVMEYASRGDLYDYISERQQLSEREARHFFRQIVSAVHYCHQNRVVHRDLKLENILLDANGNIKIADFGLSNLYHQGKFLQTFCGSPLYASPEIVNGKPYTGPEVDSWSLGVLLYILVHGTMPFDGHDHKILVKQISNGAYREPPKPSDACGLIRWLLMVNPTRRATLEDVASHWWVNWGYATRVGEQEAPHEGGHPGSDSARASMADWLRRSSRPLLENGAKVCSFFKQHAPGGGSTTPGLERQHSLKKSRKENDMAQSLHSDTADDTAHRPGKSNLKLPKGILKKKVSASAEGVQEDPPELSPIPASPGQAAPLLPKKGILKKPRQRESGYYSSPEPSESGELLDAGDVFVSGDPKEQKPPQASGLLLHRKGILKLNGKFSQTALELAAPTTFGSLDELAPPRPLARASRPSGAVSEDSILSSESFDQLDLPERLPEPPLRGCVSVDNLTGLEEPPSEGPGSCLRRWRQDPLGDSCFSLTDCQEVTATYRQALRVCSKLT
# [12] = molecular target: Tyrosine-protein kinase Lck (Homo sapiens, UniProt P06239); experiment: Selectivity interaction (ProQinase) EUB0000171b LCK
# Tyrosine-protein kinase Lck, sequence (P06239 2-509 limits assumed): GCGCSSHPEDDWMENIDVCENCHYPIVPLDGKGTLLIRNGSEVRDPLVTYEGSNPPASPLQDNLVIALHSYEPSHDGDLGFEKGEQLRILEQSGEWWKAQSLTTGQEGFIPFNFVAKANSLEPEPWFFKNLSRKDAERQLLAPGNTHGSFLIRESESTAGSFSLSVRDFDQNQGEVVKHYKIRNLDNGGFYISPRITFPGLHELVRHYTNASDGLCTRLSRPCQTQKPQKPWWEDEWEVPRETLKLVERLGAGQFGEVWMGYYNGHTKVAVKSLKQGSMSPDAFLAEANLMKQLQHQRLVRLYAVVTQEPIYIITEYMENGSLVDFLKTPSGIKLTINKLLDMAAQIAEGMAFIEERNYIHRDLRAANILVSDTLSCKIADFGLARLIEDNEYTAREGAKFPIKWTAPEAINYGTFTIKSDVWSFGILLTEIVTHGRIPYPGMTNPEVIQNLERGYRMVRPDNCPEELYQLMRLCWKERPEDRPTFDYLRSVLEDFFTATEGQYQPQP
compound,measurement,setting,value
O=C(NOC[C@H](O)CO)c1ccc(F)c(F)c1Nc1ccc(I)cc1F,% of control,[1],94%
same,% of control,[2],92%
CC(=O)c1cc(-c2ccccc2OCC2CC2)c2ncccn12,% of control,Histamine H1 receptor,107%
Nc1cnc(N2CCc3cc(S(=O)(=O)Nc4c(F)cc(Cl)cc4F)cc(N4CCCC4=O)c32)nc1 [TP-020n],% of control,[3],83%
CC[C@@H]1[C@H](F)C(=O)N[C@@H]1COc1nccc2cc(C(N)=O)c(OC)cc12 [ZIMLOVISERTIB],% of inhibition,[4],10.1%
COCC(=O)NC/C=C/c1ccc2ncnc(Nc3ccc(Oc4ccc(C)nc4)c(C)c3)c2c1 [CP-724714],% of control,[5],93%
N#Cc1cccc(-c2c[nH]c3ncnc(N4CCOCC4)c23)c1,% of control,[6],100%
same,% of inhibition,[7],5%
same,% of inhibition,[8],16%
same,% of control,[9],100%
CNC(=O)Nc1ccc(-c2nc(N3CC4CCC(C3)O4)c3cnn(C4CCC5(CC4)OCCO5)c3n2)cc1,% of control,[10],90%
Cn1cc(-n2cnc3c(NCc4nc5cc(Cl)c(Cl)cc5[nH]4)nc(N4CCOCC4)nc32)cn1,% of inhibition,[11],-12.8%
C=CC(=O)Nc1cccc(C(=O)Nc2ccc(Nc3cc(-c4[nH]c(SC)nc4C)ccn3)cc2)c1,% of control,[12]; at 1 µM,85%
same,% of control,[12]; at 5 µM,89%
